Data: patent US8609690B2, “Aryl- and heteroarylcarbonyl derivatives of substituted nortropanes, medicaments containing such compounds and their use” (Boehringer Ingelheim International GmbH, priority 2008, dated 2013)

Target: T1, 11β-HSD 1 (Homo sapiens, UniProt P28845)
T1 construct: detecting cortisol generated from cortisterone by human liver microsomes; from tissue; host or cells: human liver microsomes
Assay: In vitro inhibition of 11β-HSD 1, HTRF detection of cortisol generated by human liver microsomes
Assay type: biochemical
Conditions: 1 μM test compound, 100% indicates no inhibition, zero or below zero indicates complete inhibition (relative to carbenoxolone)
Summary of the method: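 Human liver microsomes with test compound were incubated 1 h at 37 °C in Tris buffer, pH 6.0, with 200 μM NADPH and 80 nM cortisone. Cortisol formed was detected by competitive HTRF immunoassay (665/615 nm ratio) and calibrated against a cortisol standard curve. Values are activities at 1 μM compound relative to carbenoxolone, where 100% indicates no inhibition.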

T1 sequence (P28845 whole entry): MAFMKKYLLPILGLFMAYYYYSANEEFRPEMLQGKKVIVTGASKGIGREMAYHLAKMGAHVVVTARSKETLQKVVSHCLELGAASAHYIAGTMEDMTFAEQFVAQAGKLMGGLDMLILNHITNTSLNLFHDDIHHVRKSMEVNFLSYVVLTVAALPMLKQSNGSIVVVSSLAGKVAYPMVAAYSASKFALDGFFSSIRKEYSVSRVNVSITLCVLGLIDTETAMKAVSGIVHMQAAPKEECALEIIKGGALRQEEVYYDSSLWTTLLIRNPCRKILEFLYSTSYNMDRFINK

Structure (SMILES)	Inhibitory activity on 11β-HSD 1, % CTL [% CTL]
O=C(c1ccc2c(c1)OCCO2)N1[C@@H]2CC[C@H]1C[C@@H](c1ccc(Oc3ccccc3)cc1)C2 [Example 152, endo-(2,3-Dihydro-benzo[1 ,4]dioxin-6-yl)-[3-(4-phenoxy-phenyl)-8-aza-bicyclo[3.2.1]oct-8-yl]-methanone]	5
CCn1ccc2ccc(C(=O)N3[C@@H]4CC[C@H]3C[C@@H](c3ccc(F)cc3)C4)cc21 [Example 51, endo-(1-Ethyl-1H-indol-6-yl)-[3-(4-fluoro-phenyl)-8-aza-bicyclo[3.2.1]oct-8-yl]-methanone]	41
O=C(c1ccc2c(c1)OCO2)N1[C@@H]2CC[C@H]1C[C@@H](c1ccc(F)cc1)C2 [Example 114, endo-Benzo[1,3]dioxol-5-yl-[3-(4-fluoro-phenyl)-8-aza-bicyclo[3.2.1]oct-8-yl]-methanone]	−10
O=C(O)c1ccc([C@H]2C[C@H]3CC[C@@H](C2)N3C(=O)c2ccc3c(c2)OCCO3)cc1 [Example 158, endo-4-[8-(2,3-Dihydro-enzo[1,4]dioxine-6-carbonyl)-8-aza-bicyclo[3.2.1]oct-3-yl]-benzoic acid]	86
Cc1ccc([C@H]2C[C@H]3CC[C@@H](C2)N3C(=O)c2ccco2)cc1 [Example 17, endo-Furan-2-yl-(3-p-tolyl-8-aza-bicyclo[3.2.1]oct-8-yl)-methanone]	93
N#Cc1cccc(C(=O)N2[C@@H]3CC[C@H]2C[C@@H](c2ccc(F)cc2)C3)c1 [Example 106, endo-3-[3-(4-Fluoro-phenyl)-8-aza-bicyclo[3.2.1]octane-8-carbonyl]-benzonitrile]	75
O=C(c1ccc2ncsc2c1)N1[C@@H]2CC[C@H]1C[C@@H](c1ccc(F)cc1)C2 [Example 94, endo-Benzothiazol-6-yl-[3-(4-fluoro-phenyl)-8-aza-bicyclo[3.2.1]oct-8-yl]-methanone]	12
O=C(c1ccc(O)c(F)c1)N1[C@@H]2CC[C@H]1C[C@@H](c1ccc(F)cc1)C2 [Example 169, endo-(3-Fluoro-4-hydroxy-phenyl)-[3-(4-fluoro-phenyl)-8-aza-bicyclo[3.2.1]oct-8-yl]-methanone]	−25
CS(=O)(=O)N1CCc2cc(C(=O)N3[C@@H]4CC[C@H]3C[C@@H](c3ccc(F)cc3)C4)ccc21 [Example 20, endo-[3-(4-Fluoro-phenyl)-8-aza-bicyclo[3.2.1]oct-8-yl]-(1-methanesulfonyl-2,3-dihydro-1H-indol-5-yl)-methanone]	87
Cc1nc2cc(C(=O)N3[C@@H]4CC[C@H]3C[C@@H](c3ccc(F)cc3)C4)ccc2c(=O)[nH]1 [Example 69, endo-7-[3-(4-Fluoro-phenyl)-8-aza-bicyclo[3.2.1]octane-8-carbonyl]-2-methyl-3H-quinazolin-4-one]	93
CC(=O)c1cccc(C(=O)N2[C@@H]3CC[C@H]2C[C@@H](c2ccc(F)cc2)C3)c1 [Example 124, endo-1-{3-[3-(4-Fluoro-phenyl)-8-aza-bicyclo[3.2.1]octane-8-carbonyl]-phenyl}-ethanone]	59
COc1cccc(C(=O)N2[C@@H]3CC[C@H]2C[C@@H](c2ccc(F)cc2)C3)c1 [Example 109, endo-[3-(4-Fluoro-phenyl)-8-aza-bicyclo[3.2.1]oct-8-yl]-(3-methoxy-phenyl)-methanone]	−33
O=C(c1cccc(CO)c1)N1[C@@H]2CC[C@H]1C[C@@H](c1ccc(F)cc1)C2 [Example 82, endo-[3-(4-Fluoro-phenyl)-8-aza-bicyclo[3.2.1]oct-8-yl]-(3-hydroxymethyl-phenyl)-methanone]	5
Cn1c(=O)[nH]c2cc(C(=O)N3[C@@H]4CC[C@H]3C[C@@H](c3ccc(F)cc3)C4)ccc21 [Example 59, endo-5-[3-(4-Fluoro-phenyl)-8-aza-bicyclo[3.2.1]octane-8-carbonyl]-1-methyl-1,3-dihydro-benzoimidazol-2-one]	95
O=C(c1ccc2c(c1)OCCO2)N1[C@@H]2CC[C@H]1C[C@@H](c1ccc(F)cc1F)C2 [Example 160, endo-[3-(2,4-Difluoro-phenyl)-8-aza-bicyclo[3.2.1]oct-8-yl]-(2,3-dihydro-benzo[1,4]dioxin-6-yl)-methanone]	−26
Cc1ccc([C@H]2C[C@H]3CC[C@@H](C2)N3C(=O)c2ccc3c(c2)OCCO3)cc1 [Example 138, endo-(2,3-Dihydro-benzo[1,4]dioxin-6-yl)-(3-p-tolyl-8-aza-bicyclo[3.2.1]oct-8-yl)-methanone]	4

Structure (SMILES)	Inhibitory activity on 11β-HSD 1, % CTL [% CTL]
COc1cccc(C(=O)N2[C@@H]3CC[C@H]2C[C@@H](c2ccc(F)cc2)C3)c1OC [Example 127, endo-(2,3-Dimethoxy-phenyl)-[3-(4-fluoro-phenyl)-8-aza-bicyclo[3.2.1]oct-8-yl]-methanone]	85
O=C(c1cccc2[nH]cnc12)N1[C@@H]2CC[C@H]1C[C@@H](c1ccc(F)cc1)C2 [Example 73, endo-(1H-Benzoimidazol-4-yl)-[3-(4-fluoro-phenyl)-8-aza-bicyclo[3.2.1]oct-8-yl]-methanone]	90
O=C(c1cc(F)cc(F)c1)N1[C@@H]2CC[C@H]1C[C@@H](c1ccc(F)cc1)C2 [Example 12, endo-(3,5-Difluoro-phenyl)-[3-(4-fluoro-phenyl)-8-aza-bicyclo[3.2.1]oct-8-yl]-methanone]	85
Cc1ccc([C@H]2C[C@H]3CC[C@@H](C2)N3C(=O)c2cccs2)cc1 [Example 15, endo-Thiophen-2-yl-(3-p-tolyl-8-aza-bicyclo[3.2.1]oct-8-yl)-methanone]	56
Cc1ccc(C(=O)N2[C@@H]3CC[C@H]2C[C@@H](c2ccc(F)cc2)C3)cc1 [Example 101, endo-[3-(4-Fluoro-phenyl)-8-aza-bicyclo[3.2.1]oct-8-yl]-p-tolyl-methanone]	4
COc1cc(OC)cc(C(=O)N2[C@@H]3CC[C@H]2C[C@@H](c2ccc(F)cc2)C3)c1 [Example 123, endo-(3,5-Dimethoxy-phenyl)-[3-(4-fluoro-phenyl)-8-aza-bicyclo[3.2.1]oct-8-yl]-methanone]	−17
Cc1cc(C(=O)N2[C@@H]3CC[C@H]2C[C@@H](c2ccc(F)cc2)C3)ccc1O [Example 166, endo-[3-(4-Fluoro-phenyl)-8-aza-bicyclo[3.2.1]oct-8-yl]-(4-hydroxy-3-methyl-phenyl)-methanone]	−33
O=C(c1n[nH]c2c1CCCC2)N1[C@@H]2CC[C@H]1C[C@@H](c1ccc(F)cc1)C2 [Example 23, endo-[3-(4-Fluoro-phenyl)-8-aza-bicyclo[3.2.1]oct-8-yl]-(4,5,6,7-tetrahydro-1H-indazol-3-yl)-methanone]	83
CC(C)(C)c1cc(C(=O)N2[C@@H]3CC[C@H]2C[C@@H](c2ccc(F)cc2)C3)[nH]n1 [Example 11, endo-(5-tert-Butyl-2H-pyrazol-3-yl)-[3-(4-fluoro-phenyl)-8-aza-bicyclo[3.2.1]oct-8-yl]-methanone]	82
O=C(c1cccc(Cl)c1)N1[C@@H]2CC[C@H]1C[C@@H](c1ccc(F)cc1)C2 [Example 125, endo-(3-Chloro-phenyl)-[3-(4-fluoro-phenyl)-8-aza-bicyclo[3.2.1]oct-8-yl]-methanone]	7
Cn1ccc2cc(C(=O)N3[C@@H]4CC[C@H]3C[C@@H](c3ccc(F)cc3)C4)ccc21 [Example 131, endo-[3-(4-Fluoro-phenyl)-8-aza-bicyclo[3.2.1]oct-8-yl]-(1-methyl-1H-indol-5-yl)-methanone]	−20
O=C(c1ccc2c(c1)OCCO2)N1C2CCC1CC(c1cccc(-c3ccccc3)c1)C2 (centres unmarked) [Example 150, (3-Biphenyl-3-yl-8-aza-bicyclo[3.2.1]oct-8-yl)-(2,3-dihydro-benzo[1,4]dioxin-6-yl)-methanone]	62
Cc1cc(C(F)F)n2nc(C(=O)N3[C@@H]4CC[C@H]3C[C@@H](c3ccc(F)cc3)C4)nc2n1 [Example 162, endo-(7-Difluoromethyl-5-methyl-[1,2,4]triazolo[1,5-a]pyrimidin-2-yl)-[3-(4-fluoro-phenyl)-8-aza-bicyclo[3.2.1]oct-8-yl]-methanone]	96
COc1cccc([C@H]2C[C@H]3CC[C@@H](C2)N3C(=O)c2ccc3c(c2)OCCO3)c1 [Example 139, endo-(2,3-Dihydro-benzo[1,4]dioxin-6-yl)-[3-(3-methoxy-phenyl)-8-aza-bicyclo[3.2.1]oct-8-yl]-methanone]	21
N#Cc1ccccc1C(=O)N1[C@@H]2CC[C@H]1C[C@@H](c1ccc(F)cc1)C2 [Example 63, endo-2-[3-(4-Fluoro-phenyl)-8-aza-bicyclo[3.2.1]octane-8-carbonyl]-benzonitrile]	91
O=C(c1ccc2c(c1)OCCO2)N1[C@@H]2CC[C@H]1C[C@@H](c1ccccc1O)C2 [Example 159, endo-(2,3-Dihydro-benzo[1,4]dioxin-6-yl)-[3-(2-hydroxy-phenyl)-8-aza-bicyclo[3.2.1]oct-8-yl]-methanone]	−55
